Values of other authors, collected in patent publication US20240066015A1, “TREATMENT OF PAIN ASSOCIATED WITH PARKINSON'S DISEASE” (BIAL-PORTELA & CA., S.A., priority 2021, published 2024).
Each block holds one compound with its values, some of them ahead of it.

How the values were obtained:
[1] = in comparison with placebo, added to levodopa-based therapy
[2] = oral administration, peripheral metabolism by DDC and COMT
[3] = hot plate test
[4] = patients with PD and end-of-dose motor fluctuations
[5] = transdermal patch, patients with advanced-stage PD; trial not powered for statistical significance
[6] = BIPARK-II trial and OPTIPARK study

SMILES: C[C@H](NCc1ccc(OCc2cccc(F)c2)cc1)C(N)=O [Safinamide]
PDQ-39 pain-related items [1]: significantly improve two out of three | need for pain medication [1]: significantly reduce

share of an oral dose that reaches the brain [2]: 1%
SMILES: N[C@@H](Cc1ccc(O)c(O)c1)C(=O)O [levodopa]

SMILES: CC(=O)C(=Cc1cc(O)c(O)c([N+](=O)[O-])c1)C(C)=O [nitecapone]
mediation of the analgesic effect [3]: not mediated through the CNS

SMILES: Cc1c(Cl)c(C)[n+]([O-])c(Cl)c1-c1noc(-c2cc(O)c(O)c([N+](=O)[O-])c2)n1 [opicapone]
OFF-time [4]: efficacious in reducing OFF-time | tolerability [4]: generally well tolerated | NMSS "Miscellaneous" domain effect compared with placebo (BIPARK-II trial): less than for that observed for placebo | NMSS "Miscellaneous" domain (includes pain as one aspect) [6]: positive signal | specific effect on pain [6]: no specific effect on pain was identifiable

SMILES: CCCN(CCc1cccs1)[C@H]1CCc2c(O)cccc2C1 [rotigotine]
PD-associated chronic pain [5]: may improve
